Assay results taken from patent US8541617B2, “Cycloalkylphenyl substituted cyclic ketoenols” (Bayer Cropscience AG, priority 2006, dated 2013).

What was measured:
Assay type in all cases: in vivo
[1] = tested on: green peach aphid (Myzus persicae); assay: Example G: Myzus persicae test, hydroponic treatment (MYZUPE sys.); conditions: concentration 20 ppm, pea plant
Experimental: Myzus persicae Test, Hydroponic Treatment (MYZUPE sys.)
Solvent: 7 parts by weight of dimethylformamide
Emulsifier: 2 parts by weight of alkylaryl polyglycol ether
To produce a suitable preparation of active compound, 1 part by weight of active compound is mixed with the stated amounts of solvent and emulsifier, and the concentrate is diluted with water to the desired concentration.
The preparation of active compound is mixed with water. The stated concentration refers to the amount of active compound per volume unit of water (mg/l=ppm). The treated water is filled into vessels containing a pea plant (Pisum sativum) which is then infested with the green peach aphid (Myzus persicae).
After the desired period of time, the kill in percent is determined. 100% means that all aphids have been killed; 0% means that none of the aphids have been killed.

Lolium multiflorum = assay: Example B: Herbicidal post-emergence action; conditions: application rate 320 g/ha, rated after about 3 weeks
Experimental: (§1) Herbicidal Post-Emergence Action
(§2) Seeds of monocotylos and dicotylos weed and crop plants are placed in sandy lawn in wood fibre pots, covered with soil and cultivated in a greenhouse under good growth conditions. Two to three weeks after sowing, the test plants are treated at the one-leaf stage. The test compounds, formulated as wettable powders (WP) or as emulsion concentrates (EC), are then, as an aqueous suspension with a water application rate of 800 l/ha (converted), with 0.2% of wetting agent added, sprayed onto the green parts of the plants. After the test plants have been kept in the greenhouse under optimum growth conditions for about 3 weeks, the effect of the preparations is rated visually in comparison to untreated controls (herbicidal effect in percent (%): 100% effect=the plants have died, 0% effect=like control plants).

Setaria viridis = assay: Example B: Herbicidal post-emergence action; conditions: application rate 320 g/ha, rated after about 3 weeks
Experimental: as §1, §2

Row | SMILES | efficacy (kill of aphids) [1] [%] | herbicidal effect (efficacy), post-emergence (Lolium multiflorum) [%] | herbicidal effect (efficacy), post-emergence (Setaria viridis) [%]
1 | COC1CCC2(CC1)NC(=O)C(c1c(C)cc(C3CC3)cc1C)=C2O (stereo not drawn) [Example I-1-a-4] | ≥ 90 |  | 
2 | CCOC(=O)OC1=C(c2c(C)cc(C3CC3)cc2CC)C(=O)NC12CCC(OC)CC2 (stereo not drawn) [Example I-1-c-1] |  | ≥ 90 | ≥ 90
